Results from patent US7407752B2, “Oligonucleotide complexes for use as anti-viral therapeutics” (priority 2003, dated 2008).
Several values for one entry are separate records, joined by “and”; a condition that tells them apart may be missing. Equal values may be shown once.

Experiments:
[1] = intravenous; cited from earlier work
[2] = Systemic (intraperitoneal) delivery of Cy5-TFO-3 to mouse TG, fluorescence imaging; type: in vivo, Balb/c mice; conditions: 167 mcg intraperitoneal, 6 or 24 hours after injection
Experimental: Cy5-labeled TFO-3 (SEQ ID 2) was then synthesized and HPLC purified. 167 mcg of Cy5-TFO-3 (SEQ ID 2) was then systemically administered via an intraperitoneal injection into uninfected and latently infected Balb/c mice. The animals were sacrificed and dissected 6 or 24 hours after injection and the TG's imaged under a red laser light source (680 nm). An uninjected, uninfected mouse was also imaged as a control for autofluorescence (nil). Fluorescence of Cy5 was detectable in the TG's of Cy5-labeled TFO-3 (SEQ ID 2) treated mice.

HSV-1 = HSV-1 plaque reduction on Vero cells after incubation with TFO and ultraviolet-A radiation; conditions: for viral titer as percent of the unirradiated virus only control: 1 μM TFO
Experimental: Viral titers were determined by plaque counts on Vero cell monolayers.
3000 PFU/ml of HSV-1 were incubated with 1 μM TFO-3 (SEQ ID 2) at room temperature, N=5 replications per group. Viral killing (as measured by plaque-reduction) was effected by exposing the mixture to ultraviolet-A radiation for 0, 20 and 40 minutes at room temperature. HSV-1 titers were determined by plaque assay on Vero cells. […] The results were calculated as a percent of the unirradiated (0 min.) “virus only” control titers±SEM. Statistical comparisons were made between the “virus only” and “virus+TFO-3 (SEQ ID 2)” groups at each time point using an unpaired two-tailed Student's T-Test.
3000 PFU/ml of HSV-1 was incubated with 1 μM TFO-3 (SEQ ID 2) or a (scrambled) control oligonucleotide. Viral killing was affected by exposing the mixture to ultraviolet-A radiation for 40 min. Results are expressed as percent of the “virus only” control titers±SEM. Statistical comparisons were made to the “virus only” group using the two-tailed Student's T-Test.
HSV-1 was incubated with 1 μM TFO-3 (SEQ ID 2) with and without exposure to ultraviolet-A radiation for 40 minutes at room temperature. Results are expressed as mean viral titers±standard errors. Statistical comparisons were made using the two-tailed Student's T-Test.
All the groups were exposed to ultraviolet-A radiation for 40 minutes at room temperature. Results are expressed as mean viral titers ±standard error of the mean. Statistical comparisons were made using the two-tailed Mann-Whitney test for non-parametric data.

TG neurons [3] = assay: Movement of 32P-labeled TFO-3 into rat TG neuron cultures; type: cell-based
[4] = tested on: parent (control) reporter construct pGL3; assay: Luciferase reporter transcription inhibition, parent construct pGL3 in HEK-293; type: cell-based, human; conditions: HEK-293, 1 or 10 μM TFO, 24 hours, construct lacking HSV-1 target sequence
[5] = tested on: HSV-1 LAT target sequence duplex; assay: Triplex formation in vitro (native polyacrylamide gel); type: binding
Experimental: The target sequence bound by TFO-3 (SEQ ID 2) yielded a relatively clean duplex when end-labeled with ^32P and allowed to anneal to its purine complement. One fmole […] [The absolute amount of target DNA was one femtomole=1×10^−15 moles placed in solution to a concentration of 1.0 nM=1.0 nanomoles/liter] of this duplex was then incubated at 37 degrees C. with increasing concentrations of the […] in a binding buffer containing 10 mM Tris, pH 7.5, 1 mM spermine, 20 mM KCl, and 10% sucrose, according to a published protocol. The DNA complexes—single-strand, double-strand, and triplex—were separated in a native polyacrylamide gel. Triplex DNA complex formation was detected at a triplex:duplex ratio of 10:1. Triplex formation was virtually complete at a triplex:duplex ratio of 100:1, corresponding to a triplex oligonucleotide concentration of 100 nM, consistent with other reports in the literature and below that believed to be achievable in vivo.

[6] = tested on: HSV-1 Target-3 reporter construct C2A; assay: Luciferase reporter transcription inhibition, construct C2A in HEK-293; type: cell-based, human; conditions: HEK-293, 1 or 10 μM TFO, 24 hours
TG neurons [7] = assay: Ex vivo delivery of TFO-3 to latently infected mouse TG; conditions: 42 micromolar, 1.5 hrs ex vivo
Experimental: Ex vivo delivery of TFOs was then performed by incubating latently infected mouse TG ex vivo for 1.5 hrs in a 42 micromolar solution of TFO-3.

[8] = Example 9, 1 μM, UVA 40 minutes
[9] = 0.5 nM starting concentration, +20 ng/ml NGF

In the case of `Nc1nc2c(ncn2COCCO)c(=O)[nH]1` [Acyclovir], the steady-state trough concentration [1] is given as 2 μg/ml and 8 μM.
With “Cy5-labeled TFO-3: TFO-3 (SEQ ID 2) labeled with Cy5, HPLC purified (GGGAGGAGGGAGGGAAGGAGGGGG; DNA, backbone not given here; Cy5 label attached, triplex-forming oligonucleotide, further chemistry not fully specified)” the “fluorescence of Cy5 in the TG's” value [2] was “detectable”.
With “TFO-1: purine motif triplex-forming oligonucleotide binding a target site in the HSV-1 LAT domain, SEQ ID 1 (GAAGAGGGGGGGGGGAAGAAG; DNA, backbone not given here)” the antiviral effect (HSV-1; [8]) was “no measurable antiviral effect”.
With “TFO-3: purine motif triplex-forming oligonucleotide binding a target site in the HSV-1 LAT domain, SEQ ID 2 (GGGAGGAGGGAGGGAAGGAGGGGG; further chemistry not given here)” the “average cellular oligonucleotide (32P) concentration” value (TG neurons [3]; [9]) was 95 nM, the “average oligonucleotide (32P) concentration in the supernatants” value (TG neurons [3]; [9]) was 0.44 nM and the “uptake into the neurons” value (TG neurons [3]; 0.5 nM, 2, 6 or 24 hours) was “progressively taken up”. The luciferase production [4] was “did not inhibit”, the “TFO concentration at which triplex formation is virtually complete” value ([5]; 37 degrees C., target duplex 1.0 nM) was 100 nM and the “TFO concentration at which triplex formation begins” value ([5]; HSV-1 LAT target) was 10 nM. The “viral titer as percent of the unirradiated virus only control” value (shortened to “viral titer as percent”) (HSV-1; UVA 0 min) was “approximately 80%”, the “viral titer as percent” value (HSV-1; UVA 20 min) was “approximately 50%” and the “viral titer as percent” value (HSV-1; UVA 40 min) was roughly 30%. For the same molecule, the “percent of virus only control viral titer” value (HSV-1; Example 7, strain 17 syn+, 1 μM, UVA 40 min) was “approximately 20%”, the “viral killing (plaque-reduction) added to that of UVA alone” value (HSV-1; Example 8, 1 μM, UVA 40 minutes) was 40% and the “reduction of viral titers” value (HSV-1; [8]) was 45%. For the same molecule, the luciferase production [6] was “significantly inhibited” and the “fluorescence in TG neurons” value (TG neurons [7]) was “Intense red fluorescence”.
